Assay results published in patent US20240246954A1, “COMPOSITIONS AND METHODS FOR INHIBITING KRAS” (TheRas, Inc., priority 2021, published 2024).

Assays:
[1] = target: T1, Avi-KRAS G12D (1-169) GppNHp/RAF1 RBD-3×FLAG (52-151) (Homo sapiens, UniProt P01116, G12D); experiment: HTRF Raf1-KRAS G12D-GppNHp disruption assay; assay type: biochemical; conditions: 1 h incubation
T1 construct: Avi-KRAS G12D (1-169) GppNHp
Method: (§1) The HTRF assay employed the following protocol:
(§2) Compounds were dispensed in assay plate (384-well, Grenier Bione #784075) using Echo (model 555) with dose response settings: 200 nL final volume, titration from 100 μM as a 10-point dilution series. Protein mix was prepared in assay buffer, and dispensed on plates, 10 μL per well, then incubated for 1 h at room temperature, with 700 rpm shaking. Reagents mix was prepared and dispensed on plates, 10 μL per well, then incubated for 1 h at room temperature, with 700 rpm shaking.
(§3) Plates were analyzed on an Envision plate reader using the following setting: Excitation 320 nm, Bandwidth […]; Emission 615 nm, Bandwidth […], Gain 100%, Flashes 100, Lag 60 μs. Data was reported as percentage of activity, with DMSO as 100%. Data was plotted and analyzed using Prism 8.

[2] = target: T2, Avi-KRAS G12D/Q25A (1-169) GppNHp/3×FLAG-PI3KCA (157-299) (Homo sapiens, UniProt P01116, G12D/Q25A); experiment: HTRF PI3KCA-KRAS G12D/Q25A-GppNHp disruption assay; assay type: biochemical; conditions: 1 h incubation
T2 construct: Avi-KRAS G12D/Q25A (1-169) GppNHp
T2 sequence (P01116 1-169 isoform P01116-2 G12D/Q25A limits assumed): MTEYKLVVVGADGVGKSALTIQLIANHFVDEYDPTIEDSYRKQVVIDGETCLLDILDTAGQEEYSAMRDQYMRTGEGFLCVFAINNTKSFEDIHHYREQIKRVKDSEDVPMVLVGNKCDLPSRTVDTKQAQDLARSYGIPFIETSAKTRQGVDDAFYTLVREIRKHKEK
Method: as §1, §2, §3

T1 sequence (P01116 1-169 isoform P01116-2 G12D limits assumed): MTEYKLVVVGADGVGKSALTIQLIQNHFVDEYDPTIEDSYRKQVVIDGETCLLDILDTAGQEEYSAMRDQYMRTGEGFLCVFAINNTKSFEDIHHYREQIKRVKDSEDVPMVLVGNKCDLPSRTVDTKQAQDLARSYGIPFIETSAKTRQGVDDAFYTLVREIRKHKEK

SMILES | IC50 [1] [µM] | IC50 [2] [µM]
CN1CCC[C@H]1COc1nc(NCCN)c2cc(Cl)c(-c3cccc4nc(N)sc34)c(F)c2n1 [Compound 100] | 10 to 30 | 10 to 30
CN1CCC(c2nc(N3CCNCC3)c3cc(Cl)c(-c4ccc(F)c5sc(N)nc45)c(F)c3n2)CC1 [Compound 101] | 10 to 30 | 10 to 30
CN1CCC(c2nc(NC3CNC3)c3cc(Cl)c(-c4ccc(F)c5sc(N)nc45)c(F)c3n2)CC1 [Compound 102] | 10 to 30 | 10 to 30
CN1CCC(c2nc(NCCN)c3cc(Cl)c(-c4ccc(F)c5sc(N)nc45)c(F)c3n2)CC1 [Compound 103] | 10 to 30 | 10 to 30
CN1CCC[C@H]1COc1nc(N2C[C@@H]3[C@H]2CCN3C(=O)CN)c2cc(Cl)c(-c3cccc4nc(N)sc34)c(F)c2n1 [Compound 104] | 10 to 30 | 10 to 30
CN1CCC1COc1nc(NC2CNC2)c2cc(Cl)c(-c3ccc(F)c4sc(N)nc34)c(F)c2n1 (centres unmarked) [Compound 105] | 10 to 30 | 10 to 30
CN1C[C@H](F)C[C@H]1COc1nc(NC2CNC2)c2cc(Cl)c(-c3ccc(F)c4sc(N)nc34)c(F)c2n1 [Compound 106] | 1 to 10 | 1 to 10
CN1CCC[C@H]1COc1nc(NCCN)c2cc(Cl)c(-c3ccc(F)c4nc(N)sc34)c(F)c2n1 [Compound 107] | 10 to 30 | 10 to 30
CN1CCC[C@H]1COc1nc(N2CCN(C(=O)CN)CC2)c2cc(Cl)c(-c3ccc(F)c4sc(N)nc34)c(F)c2n1 [Compound 108] | 10 to 30 | 10 to 30
CN1CCC[C@H]1COc1nc(NCCN)c2cc(Cl)c(-c3ccc4nc(N)sc4c3)c(F)c2n1 [Compound 109] | 10 to 30 | 10 to 30
CN1CCC[C@H]1COc1nc(N2CC(N)C2)c2cc(Cl)c(-c3ccc(F)c4sc(N)nc34)c(F)c2n1 [Compound 112] | 1 to 10 | 1 to 10
Nc1nc2c(F)ccc(-c3c(-c4ccoc4)cc4c(NC5CNC5)nc(OCC56CCCN5CCC6)nc4c3F)c2s1 [Compound 113] | 0.1 to 1 | 1 to 10
CN1CCC[C@H]1COc1nc(NC2CN(C(=O)CN)C2)c2cc(C(F)(F)F)c(-c3ccc(F)c4sc(N)nc34)c(F)c2n1 [Compound 114] | 1 to 10 | 1 to 10
CN1CCC[C@H]1COc1nc(N2CCNCC2)c2cc(C(F)(F)F)c(-c3ccc(F)c4sc(N)nc34)c(F)c2n1 [Compound 115] | 1 to 10 | 1 to 10
CN1CCC[C@H]1COc1nc(N2CCN(C(=O)CN)CC2)c2cc(C(F)(F)F)c(-c3ccc(F)c4sc(N)nc34)c(F)c2n1 [Compound 116] | 1 to 10 | 1 to 10
CN1C[C@H](F)C[C@H]1COc1nc(NC2CNC2)c2cc(C(F)(F)F)c(-c3ccc(F)c4sc(N)nc34)c(F)c2n1 [Compound 119] | 1 to 10 | 1 to 10
CO[C@@H]1C[C@@H](COc2nc(NC3CNC3)c3cc(C(F)(F)F)c(-c4ccc(F)c5sc(N)nc45)c(F)c3n2)N(C)C1 [Compound 122] | 1 to 10 | 1 to 10
Nc1nc2c(-c3c(C(F)(F)F)cc4c(N5CCNCC5)nc(OCC56CCCN5CCC6)nc4c3F)ccc(F)c2s1 [Compound 123] | 1 to 10 | 1 to 10
COc1c(Cl)c(-c2ccc(F)c3sc(N)nc23)c(F)c2ncnc(N3CCNCC3)c12 [Compound 125, 4-(6-chloro-8-fluoro-5-methoxy-4-(piperazin-1-yl)quinazolin-7-yl)-7-fluorobenzo[d]thiazol-2-amine] | 10 to 30 | 10 to 30
CN1C[C@H](F)C[C@H]1COc1nc(N2CCNCC2)c2cc(Cl)c(-c3ccc(F)c4sc(N)nc34)c(F)c2n1 [Compound 128] | 10 to 30 | 10 to 30
N#CCc1cc2c(N3CCN(C(=O)CN)CC3)ncnc2c(F)c1-c1ccc(F)c2sc(N)nc12 [Compound 131] | 10 to 30 | 10 to 30
CN1C[C@H](OC(F)F)C[C@H]1COc1nc(NC2CNC2)c2cc(Cl)c(-c3ccc(F)c4sc(N)nc34)c(F)c2n1 [Compound 132] | 1 to 10 | 1 to 10
